According to patent US20070299092A1 (Wyeth, priority 2004, published 2007):
pIC50: −log10 of the molar value. “And” between values parts separate entries of the source, which are not always exact repeats. Equal values may be shown once. Read-outs that look alike come from different tables or passages of the source.

What was measured:
[1] = molecular target: T1, human KDR (VEGF-receptor-2) (Homo sapiens, UniProt P35968); experiment: KDR kinase enzyme assay (DELFIA, KDR-IC-Flag, poly(Glu4-Tyr) peptide); format: biochemical; details: for inhibition at 0.1 µM: Concentration 100 nM; for inhibition at 0.1 µM / inhibition at 1 µM: read-out: % Inhibition; for inhibition at 1 µM: Concentration 1000 nM
T1 construct: beginning at Met-806; (5′-ATG GAT CCA GAT GM CTC CCA TTG) and ending at Val-1356; made in house

KDR = KDR (Homo sapiens, UniProt P35968); experiment: cell-based; details: for IC50: IC50 (nM), inhibition of KDR kinase autophosphorylation in KDR15 cells, KDR15 cells, VEGF 50 ng/ml, phospho-KDR-Y996 immunoblot; for inhibition at 1 µM: read-out: % Inhibition of KDR kinase autophosphorylation in KDR15 cells, compound conc. 1000 nM
[2] = tested on: Human umbilical vein endothelial cells (HUVEC); experiment: HUVEC proliferation assay, VEGF-dependent growth ([3H]-thymidine incorporation); format: cell-based; details: for inhibition at 10 µM / inhibition at 0.1 µM / inhibition at 1 µM: Homo sapiens, HUVEC; for inhibition at 0.1 µM: conc. 100 nM
Procedure: Cells were plated into 96-well dishes (4000 cells per well) and allowed to attach overnight. HUVEC were rinsed one time with 100 μl of EBMc-V (EBM supplemented with all above components except serum or VEGF), then 50 ul of EBMc-V was added to cells. Compounds were prepared at 200× stocks in DMSO, diluted into EBMc-V media as 4× stocks, then 50 ul added to appropriate wells. Finally, 100 μl of 2×VEGF (100 ng/ml prepared in EBMc-V; final 50 ng/ml VEGF) was added to all VEGF-treated wells. EBMc-V (no VEGF) was added to negative control wells. Parallel compound-treated plates were prepared except that 100 μl of EGM2 media containing 2% serum but lacking VEGF (EGMc-V) was added. Cells were incubated for 4-5 days at 37° C.
DNA synthesis was assessed by thymidine incorporation. Cells were incubated for 5 hours in 1 μCi of [^3H]-thymidine (PerkinElmer) by addition of 10 ul of 0.1 μCi/ul thymidine prepared in PBS to each well. After incubation, media was aspirated and the cells trypsinized and collected onto a mat using a vacuum-based Micro Cell Harvester (Skatron). [^3H]-thymidine was counted in a liquid scintillation counter. Compounds evaluated for ability to inhibit VEGF-dependent growth of human umbilical vein endothelial cells (HUVEC).

[3] = molecular target: T1, human KDR (VEGF-receptor-2); experiment: KDR kinase enzyme assay wash-out experiments (irreversible inhibition); format: biochemical
Procedure: To determine if compounds bound irreversibly to enzyme, plates were washed after the enzyme plus compound pre-incubation step and prior to the addition of ATP. Parallel plates were tested wherein one plate was processed exactly as above while a second plate was washed three times in 100 μl of 4 mM HEPES, pH 7.4, to remove unbound compound. 1× Kinase buffer (30 μl of 1 mM MnCl2, 4 mM HEPES, pH 7.4, 20 μM Na3VO4) and 20 μl of ATP/MgCl2 were added to the wash-out plate. Detection of phosphotyrosinylated peptide for both plates was performed as described above.
For each inhibitor shown in Table 2, two IC50 determinations are shown, one under normal conditions and the other where an intermediate wash-out step is carried out. […] If there was a large increase in the IC50 value in the wash-out experiment compared to the experiment where there was no wash-out, then it was determined that the compound was behaving as a conventional reversible binding inhibitor.

[4] = tested on: Human colon carcinoma DLD-1; experiment: Growth of human tumor xenografts in the nude mouse model; details: Table 6; dose not given; administered on days 1 through 20; DLD1, nude mouse

Chain of KDR (P35968 20-1356): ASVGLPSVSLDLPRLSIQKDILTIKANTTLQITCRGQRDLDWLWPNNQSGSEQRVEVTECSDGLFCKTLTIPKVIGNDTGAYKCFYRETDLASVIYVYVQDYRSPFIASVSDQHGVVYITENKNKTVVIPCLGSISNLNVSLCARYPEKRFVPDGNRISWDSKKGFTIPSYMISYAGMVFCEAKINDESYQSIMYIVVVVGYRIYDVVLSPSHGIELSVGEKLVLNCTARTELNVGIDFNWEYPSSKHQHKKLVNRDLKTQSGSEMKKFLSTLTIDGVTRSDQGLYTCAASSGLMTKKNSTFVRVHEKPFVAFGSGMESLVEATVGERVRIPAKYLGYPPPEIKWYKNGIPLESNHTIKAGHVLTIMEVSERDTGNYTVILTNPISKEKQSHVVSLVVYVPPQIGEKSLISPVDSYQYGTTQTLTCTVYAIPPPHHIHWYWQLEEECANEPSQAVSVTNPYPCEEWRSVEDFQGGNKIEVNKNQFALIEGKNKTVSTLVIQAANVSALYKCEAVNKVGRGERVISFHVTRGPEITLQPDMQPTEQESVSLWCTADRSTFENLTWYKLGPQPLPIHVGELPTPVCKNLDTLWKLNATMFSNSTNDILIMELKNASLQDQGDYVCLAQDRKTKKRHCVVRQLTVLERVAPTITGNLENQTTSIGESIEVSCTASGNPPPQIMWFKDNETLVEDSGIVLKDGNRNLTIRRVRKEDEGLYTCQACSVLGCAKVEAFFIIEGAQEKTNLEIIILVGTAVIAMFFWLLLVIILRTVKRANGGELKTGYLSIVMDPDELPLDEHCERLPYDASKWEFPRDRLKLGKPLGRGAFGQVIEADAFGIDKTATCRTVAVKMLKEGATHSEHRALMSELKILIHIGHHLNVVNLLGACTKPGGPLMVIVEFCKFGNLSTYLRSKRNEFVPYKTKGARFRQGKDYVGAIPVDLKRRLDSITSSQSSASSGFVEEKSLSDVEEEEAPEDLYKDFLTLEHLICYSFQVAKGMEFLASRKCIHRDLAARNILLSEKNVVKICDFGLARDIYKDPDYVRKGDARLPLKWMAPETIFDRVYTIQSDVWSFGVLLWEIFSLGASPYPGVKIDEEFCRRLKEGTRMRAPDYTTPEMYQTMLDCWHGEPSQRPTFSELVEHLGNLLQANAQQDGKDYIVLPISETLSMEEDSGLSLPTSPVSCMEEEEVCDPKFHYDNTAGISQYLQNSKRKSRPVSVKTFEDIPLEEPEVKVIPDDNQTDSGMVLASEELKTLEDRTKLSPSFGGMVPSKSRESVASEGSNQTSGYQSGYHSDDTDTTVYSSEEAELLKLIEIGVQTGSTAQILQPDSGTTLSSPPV
T1 sequence (P35968 806-1356): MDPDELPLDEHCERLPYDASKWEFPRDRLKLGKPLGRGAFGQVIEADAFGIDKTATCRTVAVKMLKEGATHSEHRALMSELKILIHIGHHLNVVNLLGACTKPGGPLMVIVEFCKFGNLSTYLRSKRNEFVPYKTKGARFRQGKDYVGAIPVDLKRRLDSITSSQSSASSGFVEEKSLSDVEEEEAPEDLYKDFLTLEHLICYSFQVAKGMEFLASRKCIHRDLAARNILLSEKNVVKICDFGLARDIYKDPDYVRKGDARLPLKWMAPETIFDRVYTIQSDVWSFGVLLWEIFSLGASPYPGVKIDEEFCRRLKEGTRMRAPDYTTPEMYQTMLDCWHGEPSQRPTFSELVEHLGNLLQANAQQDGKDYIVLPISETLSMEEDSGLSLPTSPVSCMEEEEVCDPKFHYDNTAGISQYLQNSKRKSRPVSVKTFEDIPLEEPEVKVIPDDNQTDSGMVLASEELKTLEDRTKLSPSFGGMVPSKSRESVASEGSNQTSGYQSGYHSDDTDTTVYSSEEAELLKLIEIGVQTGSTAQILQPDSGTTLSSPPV

SMILES | pIC50 ([1]; ATP conc. 10 μM) | inhibition at 0.1 µM ([1]; ATP conc. 10 μM) | inhibition at 1 µM ([1]; ATP conc. 10 μM) | inhibition at 1 µM ([1]; ATP conc. 1000 μM) | inhibition at 1 µM (KDR) | also measured
CCC1=CC(=O)C(Nc2ncnc3cc(OC)c(OC)cc23)=CC1=O [Example 8, 2-[(6,7-dimethoxy-4-quinazolinyl)amino]-5-ethylbenzo-1,4-quinone] | 6.76 and 6.75 | 51% | 82% | 80% |  | pIC50 ([1]; ATP conc. 100 μM): 6.70; pIC50 ([1]; ATP conc. 1000 μM): 6.62; IC50 (KDR): 172 nM; inhibition at 0.5 µM (KDR; read-out: % Inhibition of KDR kinase autophosphorylation in KDR15 cells, compound conc. 500 nM): 25%; inhibition at 10 µM ([2]; conc. 10000 nM): 87%; % Inhibition of VEGF-dependent growth of HUVEC ([2]; conc. 1000 nM): 30% and 51% and 37%; % Inhibition of VEGF-dependent growth of HUVEC ([2]; conc. 10000 nM): 98% and 89%
COCCOc1cc2ncnc(NC3=CC(=O)C(Sc4nccs4)=C(OC)C3=O)c2cc1OC [Example 20] | 7.75 | 92% | 90% | 97% |  | pIC50 ([3]; no wash): 7.75; pIC50 ([3]; wash out): 7.48
COCCOc1cc2ncnc(NC3=CC(=O)C(Oc4ccc(C(=O)c5ccccc5)cc4)=CC3=O)c2cc1OC [Example 39, 2-(4-benzoylphenoxy)-5-{[6-methoxy-7-(2-methoxyethoxy)quinazolin-4-yl]amino}benzo-1,4-quinone] | 8.46 | 91% | 94% |  | 140% | inhibition at 0.1 µM [2]: 18%; inhibition at 1 µM ([2]; conc. 1000 nM): 58%; inhibition at 10 µM ([2]; conc. 10000 nM): 99%
COCCOc1cc2ncnc(NC3=CC(=O)C(Oc4ccc5c(c4)[nH]c4ccccc45)=CC3=O)c2cc1OC [Example 41, 2-(9H-carbazol-2-yloxy)-5-{[6-methoxy-7-(2-methoxyethoxy)quinazolin-4-yl]amino}benzo-1,4-quinone] | 8.70 | 92% | 92% |  | 120% | inhibition at 0.1 µM [2]: -5%; inhibition at 1 µM ([2]; conc. 1000 nM): 42%; inhibition at 10 µM ([2]; conc. 10000 nM): 98%
COCCOc1cc2ncnc(NC3=CC(=O)C(Oc4ccc(C(=O)Cc5ccccc5)cc4)=CC3=O)c2cc1OC [Example 49, 2-{[6-methoxy-7-(2-methoxyethoxy)quinazolin-4-yl]amino}-5-[4-(phenylacetyl)phenoxy]benzo-1,4-quinone] | 6.83 | 88% | 93% |  | 90% | 
COCCOc1cc2ncnc(NC3=CC(=O)C(Oc4ccc5cc(Br)ccc5c4)=CC3=O)c2cc1OC [Example 51, 2-[(6-bromo-2-naphthyl)oxy]-5-{[6-methoxy-7-(2-methoxyethoxy)quinazolin-4-yl]amino}benzo-1,4-quinone] |  | 91% | 93% |  | 105% | 
COCCOc1cc2ncnc(NC3=CC(=O)C(Oc4ccccc4OCc4ccccc4)=CC3=O)c2cc1OC [Example 52, 2-[2-(benzyloxy)phenoxy]-5-{[6-methoxy-7-(2-methoxyethoxy)quinazolin-4-yl]amino}benzo-1,4-quinone] |  | 91% | 95% |  | 94% | 
COCCOc1cc2ncnc(NC3=CC(=O)C(Oc4ccc5c(c4)Cc4ccccc4-5)=CC3=O)c2cc1OC [Example 53, 2-(9H-fluoren-2-yloxy)-5-{[6-methoxy-7-(2-methoxyethoxy)quinazolin-4-yl]amino}benzo-1,4-quinone] |  | 90% | 94% |  | 79% | 
COCCOc1cc2ncnc(NC3=CC(=O)C(Oc4ccc(CCN)cc4)=CC3=O)c2cc1OC [Example 54, 2-[4-(2-aminoethyl)phenoxy]-5-{[6-methoxy-7-(2-methoxyethoxy)quinazolin-4-yl]amino}benzo-1,4-quinone] |  | -2% | 10% |  | -5% | 
COCCOc1cc2ncc(C#N)c(NC3=CC(=O)C(Oc4ccc(-n5ccnc5)cc4)=CC3=O)c2cc1OC [Example 72, 4-({4-[4-(1H-imidazol-1-yl)phenoxy]-3,6-dioxocyclohexa-1,4-dien-1-yl}amino)-6-methoxy-7-(2-methoxyethoxy)quinoline-3-carbonitrile] | 7.27 and 7.14 | 73% | 93% | 94% |  | pIC50 ([3]; no wash): 7.27; pIC50 ([3]; wash out): 7.13
COCCOc1cc2ncnc(NC3=CC(=O)C(N(C)c4cccc(F)c4)=CC3=O)c2cc1OC [Example 74, 2-[(3-fluorophenyl)(methyl)amino]-5-{[6-methoxy-7-(2-methoxyethoxy)quinazolin-4-yl]amino}benzo-1,4-quinone] |  | 27% | 89% | 84% | 4% | 
COCCOc1cc2ncnc(NC3=CC(=O)C(N(C)Cc4ccccc4)=CC3=O)c2cc1OC [Example 82, 2-[benzyl(methyl)amino]-5-{[6-methoxy-7-(2-methoxyethoxy)quinazolin-4-yl]amino}benzo-1,4-quinone] |  | 15% | 30% | 45% | 12% | 
COCCOc1cc2ncnc(NC3=CC(=O)C(N4CCCC4C(F)(F)F)=CC3=O)c2cc1OC (stereo not shown) [Example 150, 2-{[6-methoxy-7-(2-methoxyethoxy)quinazolin-4-yl]amino}-5-[2-(trifluoromethyl)pyrrolidin-1-yl]benzo-1,4-quinone] |  |  |  |  |  | % T/C Day 7 [4]: 63%; % T/C Day 14 [4]: 82%; % T/C Day 21 [4]: 88%; Relative tumor growth Day 7 [4]: 1.62; Relative tumor growth Day 14 [4]: 6.45; Relative tumor growth Day 21 [4]: 12.54
COCCOc1cc2ncnc(NC3=C(SC)C(=O)C(Cl)=C(OC)C3=O)c2cc1OC [Example 190, 2-chloro-3-methoxy-5-{[6-methoxy-7-(2-methoxyethoxy)quinazolin-4-yl]amino}-6-(methylthio)benzo-1,4-quinone] |  |  |  |  |  | % T/C Day 7 [4]: 61%; % T/C Day 14 [4]: 94%; % T/C Day 21 [4]: 76%; Relative tumor growth Day 7 [4]: 1.58; Relative tumor growth Day 14 [4]: 7.41; Relative tumor growth Day 21 [4]: 10.74
COCCOc1cc2ncnc(NC3=CC(=O)C(OCC4CC4)=CC3=O)c2cc1OC [Example 213, 2-(cyclopropylmethoxy)-5-{[6-methoxy-7-(2-methoxyethoxy)quinazolin-4-yl]amino}benzo-1,4-quinone] |  |  |  |  |  | IC50 (KDR): 236 to 400 nM; pIC50 ([3]; no wash): 8.33; pIC50 ([3]; wash out): 7.77
COCCOc1cc2ncnc(NC3=CC(=O)C(OCCN(C)c4ccccc4)=CC3=O)c2cc1OC [Example 222, 2-{[6-methoxy-7-(2-methoxyethoxy)quinazolin-4-yl]amino}-5-{2-[methyl(phenyl)amino]ethoxy}benzo-1,4-quinone] |  |  |  |  |  | IC50 (KDR): 175 to 210 nM; pIC50 ([3]; no wash): 7.10; pIC50 ([3]; wash out): 6.89
